These results are taken from the NIST ThermoML archive (doi:10.1021/acs.jced.5b01102).

This series is described as follows: refractive index (Na D-line) (dimensionless). The note with it: 298.15 K; 101.33 kPa; Liquid; Standard Abbe refractometry.

Numbers after ± are expanded uncertainties.

As usually defined, the refractive index is a measure of how strongly the sample bends light. `CCO` [ethanol]: the refractive index is 1.35947 ± 0.00033.
With `CO` [methanol] the figure was 1.32655 ± 0.00031; with `O` [water], 1.33251 ± 0.00031.
